Reference: patent publication US11834453B2, “Substituted pyrimido[5,4-d]pyrimidines as HER2 inhibitors” (Array BioPharma Inc., priority 2020, dated 2023)
Like-named read-outs stand apart in the source and are kept apart here.

Key:
ErbB2 WT = ErbB2 WT (Homo sapiens (Human), UniProt P04626); test: ErbB enzyme assay (CisBio HTRF KinEASE-TK), Assay 2; format: biochemical
Protocol: Compound potencies were determined using CisBio's HTRF Kinease-TK assay technology. The kinases were incubated with 250 nM TK-substrate biotin (CisBio, part of cat #62TK0PEC) at 1 mM ATP along with test compounds in a buffer consisting of 25 mM HEPES, pH 7.4, 10 mM MgCl2, 0.01% Triton X-100, and 2% DMSO in a volume of 8 μL. […] After 30-minute incubation at 22° C., the reaction was quenched by adding 8 μL of quench solution containing 62.5 nM Sa-XL665 and 0.25× TK-Ab-Cryptate in HTRF detection buffer (all from CisBio, part of cat #62TK0PEC). After a 1-hour incubation at 22° C., the extent of reaction was determined using a PerkinElmer EnVision multimode plate reader via HTRF dual wavelength detection, and the percent of control (POC) was calculated using a ratiometric emission factor. One hundred POC was determined using DMSO only samples (no compound present), and 0 POC was determined using pre-quenched control reactions.
(§1) Enzyme lots and concentration used are in Table 2.

EGFR = EGFR (Homo sapiens (Human), UniProt P00533); test: ErbB enzyme assay (CisBio HTRF KinEASE-TK), Assay 3; format: biochemical
Sequence of EGFR (P00533 25-1210): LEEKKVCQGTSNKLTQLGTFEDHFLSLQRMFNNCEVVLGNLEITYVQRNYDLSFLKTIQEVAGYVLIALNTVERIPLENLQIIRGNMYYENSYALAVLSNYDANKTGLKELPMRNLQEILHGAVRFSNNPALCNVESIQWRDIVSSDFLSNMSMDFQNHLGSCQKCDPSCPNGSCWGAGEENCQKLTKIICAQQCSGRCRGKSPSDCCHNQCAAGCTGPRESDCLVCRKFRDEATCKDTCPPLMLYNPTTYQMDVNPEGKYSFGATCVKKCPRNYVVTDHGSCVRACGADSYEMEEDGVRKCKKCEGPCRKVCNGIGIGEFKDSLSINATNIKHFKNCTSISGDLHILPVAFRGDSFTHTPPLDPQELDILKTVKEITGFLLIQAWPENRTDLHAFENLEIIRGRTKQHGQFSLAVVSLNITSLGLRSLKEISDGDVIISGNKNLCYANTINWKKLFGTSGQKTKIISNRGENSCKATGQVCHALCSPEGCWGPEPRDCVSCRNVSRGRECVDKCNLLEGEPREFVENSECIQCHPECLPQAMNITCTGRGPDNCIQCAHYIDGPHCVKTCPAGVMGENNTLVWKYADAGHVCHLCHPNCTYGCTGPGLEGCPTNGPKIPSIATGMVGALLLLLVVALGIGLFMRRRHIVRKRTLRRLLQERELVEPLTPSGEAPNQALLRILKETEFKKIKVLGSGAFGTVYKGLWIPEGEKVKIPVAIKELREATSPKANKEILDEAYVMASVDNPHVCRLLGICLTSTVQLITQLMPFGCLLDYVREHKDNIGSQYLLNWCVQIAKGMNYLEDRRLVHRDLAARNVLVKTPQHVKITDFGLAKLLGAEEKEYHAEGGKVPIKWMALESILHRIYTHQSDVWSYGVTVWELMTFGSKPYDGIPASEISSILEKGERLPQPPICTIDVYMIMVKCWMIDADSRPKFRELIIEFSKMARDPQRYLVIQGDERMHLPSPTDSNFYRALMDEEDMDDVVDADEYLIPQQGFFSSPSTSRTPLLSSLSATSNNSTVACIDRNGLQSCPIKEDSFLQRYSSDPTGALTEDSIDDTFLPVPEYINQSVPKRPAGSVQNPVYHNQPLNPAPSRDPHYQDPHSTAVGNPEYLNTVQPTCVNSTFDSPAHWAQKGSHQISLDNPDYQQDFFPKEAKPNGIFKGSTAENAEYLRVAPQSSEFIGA
Protocol: Compound potencies were determined using CisBio's HTRF Kinease-TK assay technology. The kinases were incubated with 250 nM TK-substrate biotin (CisBio, part of cat #62TK0PEC) at 1 mM ATP along with test compounds in a buffer consisting of 25 mM HEPES, pH 7.4, 10 mM MgCl2, 0.01% Triton X-100, and 2% DMSO in a volume of 8 μL. Compounds were prepared as a three-fold serial dilution in DMSO and added to the assay to give the appropriate final concentration. After 30-minute incubation at 22° C., the reaction was quenched by adding 8 μL of quench solution containing 62.5 nM Sa-XL665 and 0.25× TK-Ab-Cryptate in HTRF detection buffer (all from CisBio, part of cat #62TK0PEC). After a 1-hour incubation at 22° C., the extent of reaction was determined using a PerkinElmer EnVision multimode plate reader via HTRF dual wavelength detection, and the percent of control (POC) was calculated using a ratiometric emission factor. One hundred POC was determined using DMSO only samples (no compound present), and 0 POC was determined using pre-quenched control reactions. A 4-parameter logistic curve was fit to the POC values as a function of the concentration of compound, and the IC50 value was the point where the best-fit curve crossed 50 POC.
as §1

[1] = molecular target: ErbB2 with Exon 20 YVMA insertion (HER2-YVMA) (Homo sapiens (Human), UniProt P04626, INS775YVMA); test: Cellular phosphorylation assay, constitutive ErbB2 phosphorylation (Y1196) in engineered NIH 3T3 cells, Assay 4; format: cell-based
Sequence of ErbB2 with Exon 20 YVMA insertion (HER2-YVMA) (P04626 other isoform, or with tags, fused parts or gaps ins YVMA behind 775): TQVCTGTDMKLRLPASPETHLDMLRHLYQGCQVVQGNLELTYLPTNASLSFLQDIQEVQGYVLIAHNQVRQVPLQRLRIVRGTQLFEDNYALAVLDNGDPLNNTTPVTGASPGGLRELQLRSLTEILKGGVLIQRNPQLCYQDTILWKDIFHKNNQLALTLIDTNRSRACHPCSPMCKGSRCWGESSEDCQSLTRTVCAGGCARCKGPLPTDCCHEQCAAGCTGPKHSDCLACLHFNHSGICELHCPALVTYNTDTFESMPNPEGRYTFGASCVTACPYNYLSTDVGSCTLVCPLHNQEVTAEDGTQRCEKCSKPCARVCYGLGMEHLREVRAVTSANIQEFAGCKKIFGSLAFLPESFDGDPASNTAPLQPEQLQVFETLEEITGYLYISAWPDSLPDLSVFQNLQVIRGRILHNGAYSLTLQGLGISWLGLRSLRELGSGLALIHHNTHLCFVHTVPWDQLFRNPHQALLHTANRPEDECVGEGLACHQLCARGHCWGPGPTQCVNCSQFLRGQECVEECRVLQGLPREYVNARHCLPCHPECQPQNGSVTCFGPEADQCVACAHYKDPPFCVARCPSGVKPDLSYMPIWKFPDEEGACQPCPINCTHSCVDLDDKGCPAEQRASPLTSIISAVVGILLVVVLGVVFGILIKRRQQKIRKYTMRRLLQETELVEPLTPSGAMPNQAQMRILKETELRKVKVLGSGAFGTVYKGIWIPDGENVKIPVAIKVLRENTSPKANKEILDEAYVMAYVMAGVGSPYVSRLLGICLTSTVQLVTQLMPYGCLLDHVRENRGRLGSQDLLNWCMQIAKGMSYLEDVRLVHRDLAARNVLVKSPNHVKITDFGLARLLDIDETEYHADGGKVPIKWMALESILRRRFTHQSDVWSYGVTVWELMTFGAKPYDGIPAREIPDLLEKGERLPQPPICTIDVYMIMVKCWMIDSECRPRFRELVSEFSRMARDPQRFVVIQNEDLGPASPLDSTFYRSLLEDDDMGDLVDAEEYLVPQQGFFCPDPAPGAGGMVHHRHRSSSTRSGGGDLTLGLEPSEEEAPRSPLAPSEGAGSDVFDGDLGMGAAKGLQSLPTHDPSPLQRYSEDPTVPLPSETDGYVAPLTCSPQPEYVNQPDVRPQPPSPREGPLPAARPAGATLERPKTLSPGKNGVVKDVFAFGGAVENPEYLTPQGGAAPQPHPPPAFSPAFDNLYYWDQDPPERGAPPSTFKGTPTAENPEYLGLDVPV
Protocol: Serially diluted compounds were added to the plates for 1 hour at 37° C./5% CO2. EGFR WT cells were stimulated with 100 ng/ml rEGF for an additional 10 minutes at 37° C./5% CO2. After compound incubation, medium was removed from the cells, which were then fixed in 3.7% formaldehyde in PBS at room temperature for 20 minutes. Following a wash with PBS, cells were permeabilized with 100% methanol at room temperature for 10 minutes. Cells were then washed with PBS/0.05% Tween-20 and blocked with Odyssey blocking buffer (LI-COR Biosciences) for at least 1 hour at room temperature. Antibodies to phosphorylated ErbB2 (Y1196, Cell Signaling #6942) or phosphorylated EGFR (Y1068, Cell Signaling #3777) and GAPDH (Millipore #MAB374) were added to the cells in blocking buffer containing 0.05% azide and incubated overnight at 4° C. After washing with PBS/0.05° i° Tween-20, the cells were incubated with fluorescently labeled secondary anti-rabbit antibody (LiCOR, IRDye 800CW #926-32211) and anti-mouse antibody (Molecular Probes, Alexa Fluor 680 #A21058) for 1 hour at room temperature in the dark. Cells were then washed and analyzed for fluorescence at both wavelengths using the Odyssey Infrared Imaging System (LI-COR Biosciences). Phosphorylated ErbB2 and EGFR signal was normalized to GAPDH signal to generate curves and calculate IC50 values.

EGFR wild type (EGFR WT) = EGFR wild type (EGFR WT) (Homo sapiens (Human), UniProt P00533); test: Cellular phosphorylation assay, EGF-stimulated EGFR phosphorylation in engineered NIH 3T3 cells, Phospho-EGFR DuoSet IC ELISA, Assay 5; format: cell-based
Sequence of EGFR wild type (EGFR WT) (P00533 25-1210): as the sequence (P00533 25-1210) above
Protocol: NIH 3T3 cells were engineered to express EGFR wild type (EGFR WT; Assay 5, no footnote) with constructs obtained from GenScript and grown in DMEM supplemented with 10% fetal bovine serum and 15 μg/ml blasticidin. Cells were plated in 96-well plates at 20,000 cells/well and allowed to attach overnight at 37° C./5% CO2. Serially diluted compounds were added to the plates for 1 hour at 37° C./5% CO2. EGFR WT cells were stimulated with 100 ng/ml rEGF for an additional 10 minutes at 37° C./5% CO2. After compound incubation, medium was removed from the cells, which were then lysed in 100 μL/well lysis buffer according to the manufacturer's protocol (R&D Systems, DYC1095, Human Phospho-EGFR DuoSet IC ELISA). Same protocol was followed to determine the total levels of phospho-EGFR by measuring the optical density of each well using a VersaMax microplate reader. Curves were then generated and IC50 values calculated.

[2] = molecular target: ErbB2 insYVMA (HER2-YVMA, SEQ ID NO: 2) (Homo sapiens, UniProt P04626, INS775YVMA/P1170A); test: biochemical; conditions: ErbB2 insYVMA enzyme assay

Sequence of ErbB2 WT (P04626 23-1255): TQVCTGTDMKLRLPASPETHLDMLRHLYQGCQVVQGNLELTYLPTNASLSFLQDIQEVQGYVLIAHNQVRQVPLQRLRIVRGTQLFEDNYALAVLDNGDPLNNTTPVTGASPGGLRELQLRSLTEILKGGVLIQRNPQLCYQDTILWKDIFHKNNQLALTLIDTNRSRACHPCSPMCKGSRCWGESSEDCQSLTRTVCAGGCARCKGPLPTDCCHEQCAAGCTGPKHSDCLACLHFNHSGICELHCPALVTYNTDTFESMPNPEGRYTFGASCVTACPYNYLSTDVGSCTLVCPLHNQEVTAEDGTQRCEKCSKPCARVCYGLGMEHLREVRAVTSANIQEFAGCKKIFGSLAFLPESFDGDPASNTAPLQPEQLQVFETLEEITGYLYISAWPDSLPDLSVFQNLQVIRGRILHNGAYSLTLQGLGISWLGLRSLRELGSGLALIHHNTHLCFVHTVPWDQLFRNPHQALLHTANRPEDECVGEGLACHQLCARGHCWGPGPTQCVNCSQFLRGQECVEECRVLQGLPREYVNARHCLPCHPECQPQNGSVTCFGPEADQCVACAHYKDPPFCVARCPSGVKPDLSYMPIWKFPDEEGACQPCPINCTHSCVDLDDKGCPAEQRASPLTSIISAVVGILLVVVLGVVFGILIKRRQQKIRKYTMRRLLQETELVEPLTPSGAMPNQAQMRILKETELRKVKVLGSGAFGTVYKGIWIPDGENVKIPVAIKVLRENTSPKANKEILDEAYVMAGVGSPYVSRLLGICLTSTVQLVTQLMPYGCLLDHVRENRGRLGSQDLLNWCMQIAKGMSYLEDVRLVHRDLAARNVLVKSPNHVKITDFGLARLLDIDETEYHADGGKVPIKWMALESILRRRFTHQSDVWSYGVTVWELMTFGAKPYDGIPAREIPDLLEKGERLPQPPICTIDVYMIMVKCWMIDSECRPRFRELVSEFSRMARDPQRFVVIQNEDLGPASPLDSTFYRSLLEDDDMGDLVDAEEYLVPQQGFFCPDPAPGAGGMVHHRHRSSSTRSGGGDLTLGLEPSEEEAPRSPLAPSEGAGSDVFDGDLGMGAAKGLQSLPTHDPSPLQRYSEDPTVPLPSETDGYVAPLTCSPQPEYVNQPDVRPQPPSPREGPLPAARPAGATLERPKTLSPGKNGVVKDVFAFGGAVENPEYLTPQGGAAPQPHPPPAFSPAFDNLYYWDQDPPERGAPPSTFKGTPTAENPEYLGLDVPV

Row | SMILES | IC50 (ErbB2 WT) [nM] | IC50 (EGFR) [nM] | IC50 [1] [nM] | IC50 (EGFR wild type (EGFR WT)) [nM] | IC50 ([2]; read-out: Assay 1 IC50) [nM] | IC50 ([2]; Assay 1 IC50 (nM)) [nM]
1 | Cc1cc(Nc2ncnc3cnc(N4CCC[C@@]45CCOC5)nc23)ccc1Oc1ccc2c(c1)ncn2C (racemic) [Example 115, rac-(R)—N-(3-methyl-4-((1-methyl-1H-benzo[d]imidazol-5-yl)oxy)phenyl)-6-(7-oxa-1-azaspiro[4.4]nonan-1-yl)pyrimido[5,4-d]pyrimidin-4-amine] | 56.7 | 2190 | 15.6 | ≥ 5000 | 52.4 | –
2 | Cc1cc(Nc2ncnc3cnc(N4CC[C@]45CCOC5)nc23)ccc1Oc1ccc2c(c1)ncn2C (single isomer, unassigned) [Example 93b] | 11.6 | 1350 | 13.9 | ≥ 5000 | 16.2 | –
3 | CCOc1ncc2ncnc(Nc3ccc(Oc4ccc5c(c4)ncn5C)c(C)c3)c2n1 [Example 13, 6-ethoxy-N-(3-methyl-4-((1-methyl-1H-benzo[d]imidazol-5-yl)oxy)phenyl)pyrimido[5,4-d]pyrimidin-4-amine] | – | ≥ 10000 | 295 | ≥ 5000 | 35.1 | –
4 | Cc1cc(Nc2ncnc3cnc(N4CCC5(CCOC5)C4)nc23)ccc1Oc1ccc2c(c1)ncn2C (stereo not shown) [Example 15, N-(3-methyl-4-((1-methyl-1H-benzo[d]imidazol-5-yl)oxy)phenyl)-6-(2-oxa-7-azaspiro[4.4]nonan-7-yl)pyrimido[5,4-d]pyrimidin-4-amine] | 51.1 | ≥ 10000 | 23.4 | ≥ 5000 | 21.4 | –
5 | CON(C)c1ncc2ncnc(Nc3ccc(Oc4ccc5c(c4)ncn5C)c(C)c3)c2n1 [Example 22, 6-(methoxy(methyl)amino)-N-(3-methyl-4-((1-methyl-1H-benzo[d]imidazol-5-yl)oxy)phenyl)pyrimido[5,4-d]pyrimidin-4-amine] | 52.4 | 8700 | 13 | ≥ 5000 | 25.5 | –
6 | Cc1cc(Nc2ncnc3cnc(N4C[C@H]5CC[C@@H]4CO5)nc23)ccc1Oc1ccn2ncnc2c1 [Example 127, N-(4-([1,2,4]triazolo[1,5-a]pyridin-7-yloxy)-3-methylphenyl)-6-((1R,4R)-2-oxa-5-azabicyclo[2.2.2]octan-5-yl)pyrimido[5,4-d]pyrimidin-4-amine] | – | ≥ 10000 | 151 | ≥ 5000 | 40.7 | –
7 | Cc1cc(Nc2ncnc3cnc(N4CCC(S(C)(=O)=O)CC4)nc23)ccc1Oc1ccc2c(c1)ncn2C [Example 224] | – | ≥ 10000 | – | ≥ 5000 | – | –
8 | Cc1cc(Nc2ncnc3cnc(N4CC[C@](C)(O)C4)nc23)ccc1Oc1ccc2c(c1)ncn2C [Example 294] | – | – | – | ≥ 5000 | – | –
9 | Cc1c(Oc2ccc3c(c2)ncn3C)ccc(Nc2ncnc3cnc(N4CC[C@](C)(O)C4)nc23)c1F [Example 310] | – | – | – | ≥ 5000 | – | –
10 | Cc1c(Oc2ccn3ncnc3c2)ccc(Nc2ncnc3cnc(N4C[C@@H]5C[C@H]4CO5)nc23)c1F [Example 313] | – | 4150 | 1760 | ≥ 5000 | – | –
11 | Cc1cc(Nc2ncnc3cnc(N4CC(C(C)(C)O)C4)nc23)ccc1Oc1ccn2ncnc2c1 [Example 343] | 120 | – | 1490 | ≥ 5000 | 113 | –
12 | Cc1cc(Nc2ncnc3cnc(N4CCO[C@]5(CCOC5)C4)nc23)ccc1Oc1ccc2c(c1)ncn2C [Example 357] | – | ≥ 10000 | – | ≥ 5000 | – | –
13 | C[C@@H]1CN(c2ncc3ncnc(Nc4ccc(Oc5ccc6c(c5)ncn6C)c(Cl)c4)c3n2)CCN1C [Example 439] | 70 | – | 45.3 | ≥ 5000 | – | 38.7
14 | Cc1cc(Nc2ncnc3cnc(N4CCC5COCC54)nc23)ccc1Oc1ccc2c(c1)ncn2C (stereo not shown) [Example 472] | – | – | – | ≥ 5000 | – | –
15 | Cc1cc(Nc2ncnc3cnc(N(C)[C@@H]4CCCOC4)nc23)ccc1Oc1ccc2c(c1)ncn2C [Example 473] | – | 1530 | 5.8 | ≥ 5000 | – | –
